Assay results published in article PMC3764137, “Sulphamoylated 2-Methoxyestradiol Analogues Induce Apoptosis in Adenocarcinoma Cell Lines” (PLoS ONE, 2013).
Entries after “also recorded” stand apart in the source; their conditions may differ.

How the values were obtained:
Assay type in all cases: cell-based, human
caspase 3 = experiment: Caspase 3 colorimetric assay in HeLa cells; conditions: 0.5 μM, 24 h
Description: (§1) Possible activation of caspase 3, -6 and -8 was investigated by means of caspase 3, caspase 6 and FLICE/caspase 8 colorimetric kits, respectively. Cells (1,000,000) were seeded with an overnight attachment policy. After 24 h of exposure to 0.5 μM of the sulphamoylated 2ME2 analogues, cells were detached with trypsin and centrifuged at 13,000× g. Cells (500,000) were resuspended in 50 µl of chilled cell lysis buffer and incubated on ice for 10 min. Cells were centrifuged at 10,000×g for a min. Supernatant was transferred to a fresh tube and put on ice. After determination of the protein concentration using the bicinchoninic acid (BCA) protein assay (Thermo Fisher Scientific, Johannesburg, South Africa), 100 µg protein/50 µl cell lysis buffer was mixed with 50 µl 2X reaction buffer (containing 10 mM Dithiothreitol (DTT)). Ac-Asp-Glu-Val-Asp-p-nitroanilide (Ac-DEVD-pNA) (5 µl of 4 mM) (caspase-3-specific substrate), or 5 µl 4 mM […] (Ac-VEID-pNA) (caspase-6-specific substrate), or 5 µl 4 mM Ac-Ile-Glu-Thr-Asp-p-nitroanilide (Ac-IETD-pNA) (caspase-8-specific substrate) was added and the mixture was incubated at 37°C for 120 min (200 µM final concentration). Absorbance was determined at 405 nm on the ELx800 Universal Microplate Reader available from Bio-Tek Instruments Inc. (Vermont, United States of America).

HeLa cells [1] = experiment: Cell morphology by transmission electron microscopy; conditions: 24 h; for cell shrinkage (TEM): compared to vehicle-treated cells
Description: The in vitro influence of ESE-15-one, EMBS and ESE-16 on cell morphology was determined after exposure for 24 h using transmission electron microscopy (TEM). […] After each fixation step the samples were rinsed 3 times in 0.0075 M sodium phosphate buffer (pH 7.4). Samples were dehydrated using increasing concentrations of ethanol (30%, 50%, 70%, 90%, and 3×100%) and embedded in Quetol resin, sectioned with a microtome and placed on copper discs. Sections were contrasted with 4% aqueous uranyl acetate and Reynolds' lead citrate and viewed with a JOEL JEM 2100F transmission electron microscope (Electron Microscopy Unit, University of Pretoria, South Africa).

caspase-8 = experiment: FLICE/caspase 8 colorimetric assay; conditions: 0.5 μM, 24 h
Description: as §1

HeLa cells [2] = experiment: Double immunofluorescence of intracellular microtubules; conditions: 24 h, 0.189 μM ESE-15-one, 0.5 μM EMBS and ESE-16, 1μM colchicine
Description: (§2) In order to visualize the effect of the 2ME2 analogues on microtubule dynamics and integrity, a double immunofluorescence technique using antibodies against tyrosinated and detyrsosinated tubulin was conducted as described by Paturle-Lafanechère et al. (2004). HeLa and MDA-MB-231 cells were seeded onto sterilized coverslips and allowed to grow to 80% confluency for 48 h. Cells were exposed to 0.189 μM ESE-15-one, 0.5 μM EMBS and ESE-16 along with DMSO (negative control) and 1μM colchicine as a positive control for 24 h. Cells were permeablised permeabilized with warmed OPT buffer (80 mmol/L Pipes, […], […], 0.5% Triton X-100 and glycerol 10%, pH 6.8), followed by fixation in ice-cold methanol at −20°C and were subsequently incubated with the primary antibody cocktail (PBS containing anti-detyrosinated tubulin (L4), anti-[…], BSA 0.3%, tween 0.1%). After incubation, cells were incubated with the secondary antibodies, namely Alexa 488 (Invitrogen) and Cy3 (Jackson ImmunoResearch laboratories). Samples were visualized using a Zeiss AxioImager Z1 microscope controlled by Axiovision softwared (Carl Zeiss) (X63 oil objective). Images were captured using an Ocra R2 N/B camera (Hamamatsu) and assessed for microtubule integrity and ratio of tyrosinated to detyrosinated tubulin.

MDA-MB-231 cells = experiment: as above; conditions: MDA-MB-231, 24 h; 0.189 μM ESE-15-one, 0.5 μM EMBS and ESE-16, 1μM colchicine
Description: as §2

HeLa cells [3] = experiment: Cell number determination by crystal violet staining; conditions: for cell growth: 24 h; for concentration that significantly inhibits HeLa proliferation: 24 h of exposure
Description: Crystal violet is a method used to determine the number of cells by staining the deoxyribonucleic acid (DNA). Gillies et al. (1986) used crystal violet to quantify cell number in monolayer cultures as a function of the absorbance of the dye taken up by the cells. A dose-dependent study was chosen with a concentration range of 0.1–25 μM since it was previously observed in our laboratory that this concentration series exerts antiproliferative activity in HeLa cells. Exponentially growing HeLa cells were seeded in 96 well tissue culture plates at a cell density of 5,000 cells per well. Cells were incubated at 37°C in a humidified atmosphere containing 5% CO2 for 24 h to allow for attachment. To establish the starting number of cells, a baseline determination was conducted before exposure. Subsequently, the medium was discarded and cells were exposed to the sulphamoylated 2ME2 analogues at a concentration series of 0.1–25 μM for the 24 h at 37°C. Vehicle-treated controls were also included. Cells were fixed with 100 µl of 1% gluteraldehyde (incubation for 15 min at room temperature). Gluteraldehyde was discarded and cells were stained using 100 µl 0.1% crystal violet (incubated at room temperature for 30 min). Excedent crystal violet was discarded and the 96 well plate was submersed under running water. Cells were solubilized using 200 µl 0.2% Triton X-100 and incubated at room temperature for 30 min. Solution (100 µl) was transferred to a new microtitre plate. Afterwards, the absorbance was determined at 570 nm using an ELx800 Universal Microplate Reader available from Bio-Tek Instruments Inc. (Vermont, United States of America).

[4] = 0.5 µM, compared to vehicle-treated cells

Row | Compound | caspase 3 activity compared to vehicle-treated cells (caspase 3) | cell debris (TEM) (HeLa cells [1]) | vacuoles (TEM) (HeLa cells [1]) | cell shrinkage (TEM) (HeLa cells [1]) | caspase-8 activity increase compared to vehicle-treated cells (caspase-8) [fold] | microtubule integrity (HeLa cells [2]) | microtubule integrity (MDA-MB-231 cells) | cell growth (HeLa cells [3]; 0.1 µM) [%] | cell growth (HeLa cells [3]; [4]) [%] | cell growth (HeLa cells [3]; 5 µM and 10 µM) | concentration that significantly inhibits HeLa proliferation (HeLa cells [3]) [µM] | apoptotic bodies (TEM) (HeLa cells [1])
1 | CCc1cc2c(cc1OS(N)(=O)=O)CC[C@@H]1C2CC[C@]2(C)[C@@H](OS(N)(=O)=O)CC[C@@H]12 (stereo partly drawn) [EMBS, (8R, 13S, 14S, 17S)-2-ethyl-13-methyl-7,8,9, 11, 12,13, 14, 15, 16, 17-decahydro-6H-cyclopenta [a] phenanthrane-3, 17-diyl bis (sulphamate)] | more than doubled | Cell debris was observed | vacuoles | shrunken | 2.6 | microtubule abrogation; also recorded: fragmented microtubules | detyrosinated microtubule fragments | 92.32 | 40.01 | slight decrease in cell growth | 0.5 | –
2 | CCc1cc2c(cc1OS(N)(=O)=O)CC[C@@H]1[C@@H]2CC[C@]2(C)C(=O)C=C[C@@H]12 [ESE-15-one, 2-Ethyl-3-O-sulphamoyl-estra-1,3,5 (10) 15-tetraene-3-ol-17one] | more than doubled | – | vacuoles | shrunken | 1.7 | microtubule abrogation; also recorded: altered microtubule morphology | detyrosinated microtubule fragments | 80.31 | 40.87 | slight decrease in cell growth | 0.5 | Apoptotic bodies were observed
